Source: patent US7947653B1, “Methods for treating epidermal growth factor receptor tyrosine kinase inhibitor-resistant cancers” (Cold Spring Harbor Laboratory, priority 2009, dated 2011)

Experiments:
[1] = system: NCI-H1650; assay: Sensitivity to erlotinib, MTT assay; assay type: cell-based; settings: Homo sapiens, read-out: IC50 to either gefitinib or erlotinib treatment; NCI-H1650, EGFR delE746-A750; 'typically displays'
[2] = system: NCI-H1650 M3 cells; assay: Sensitivity to erlotinib, MTT assay, erlotinib-resistant cells; assay type: cell-based, human
Description: Viability was measured by MTT assay relative to untreated cells, with each data point showing the average of four replicates.

[3] = system: phospho-STAT3; assay: Western blot for phospho-STAT3, parental cells; assay type: cell-based, human
Description: (§1) Adherent cells were washed with 1×PBS and whole cell lysate was extracted and western blot analysis was performed as previously described (Sordella et al. Science 305, 1163-1167; 2004). Antibodies against phosphor-EGFR (Tyr1068), total Akt, phospho-Akt (Ser473), total ERK 1/2, phospho-ERK 1/2 (Thr202/tyr204), phospho-STAT3 (Tyr705), cleaved PARP and phospho-MET (Tyr1234/Tyr1235) were purchased from Cell Signaling Technology (Danvers, Mass.). Total cMET and total EGFR antibodies were purchased from Santa Cruz Biotechnology (Santa Cruz, Calif.). The antibody against total STAT3 was purchased from BD Biosciences (San Jose, Calif.).
(§2) Cell extracts were analyzed by immunoblotting with antibodies specific to Tubulin, AKT, P-AKT, STAT3, and P-STAT3.

[4] = system: phospho-STAT3; assay: Western blot for phospho-STAT3, NCI-H1650 M3 cells; assay type: cell-based, human
Description: as §1
To determine whether IL-6 was the autocrine factor responsible for promoting STAT3 phosphorylation in the erlotinib-resistant cells, the expression of IL-6 was inhibited using siRNA technology. Briefly, NCI-H 1650 M3 cells were transfected with siRNA targeting IL-6 (siRNA I and II) or a non-specific siRNA (siRNA III) using Lipofectamine 2000 at a final concentration of 30 nM siRNA. After 6 days cell extracts were analyzed by immunoblotting for phospho-STAT3, STAT3 and tubulin. […] Thus, an increased secretion of IL-6 was responsible for the observed STAT3 phosphorylation. […] Cell extracts were analyzed by immunoblot for phospho-STAT3 and total STAT3. […]

[5] = system: P-EGFR; assay: Western blot for P-EGFR, parental and resistant cells; assay type: cell-based, human; settings: parental versus NCI-H1650 M3, erlotinib 0.01-10 μM, 3 hours
Text: as §1, with “Antibodies” for “Adherent cells were washed with 1×PBS and whole cell lysate was extracted and western blot analysis was performed as previously described (Sordella et al. Science 305, 1163-1167; 2004). Antibodies”

[6] = system: P-AKT; assay: Western blot for P-AKT; assay type: cell-based, human
Description: as §1, with “Antibodies” for “Adherent cells were washed with 1×PBS and whole cell lysate was extracted and western blot analysis was performed as previously described (Sordella et al. Science 305, 1163-1167; 2004). Antibodies”
as §2

[7] = system: cleaved PARP; assay: Immunoblot for cleaved PARP (apoptosis); assay type: cell-based, human
Description: as §1
Cells not treated with the drug were used as a control. Cell extracts obtained after 72 hours were analyzed by immunoblotting for cleaved PARP (CL-PARP), an indicator of apoptosis status.

[8] = system: IL-6; assay: IL-6 ELISA of cell media; assay type: cell-based, human; settings: NCI-H1650 M3, in the presence of erlotinib 10 μM
Description: Cells were grown to approximately 80% confluency. Cells were washed with 1×PBS and fresh media was added. After 24 hours the supernatant was collected and analyzed for IL-6 using an ELISA kit (Diaclone, Canton, Mass.) following the manufacturers instruction.
The mRNA levels of various secreted proteins, including HGF, EGF, LIF, CNTF, IL-1A, IL-11, OSM and IL-6 (which are known to increase STAT3 phosphorylation), were examined by RT-PCR, the results normalized against beta-actin mRNA levels. No substantial levels of HGF were detected in either the parental-sensitive cells or in the resistant cells. Among these protein factors, a substantial increase in IL-6 mRNA levels was found in the resistant cells as compared to parental cells. This increase in IL-6 mRNA expression correlated with augmented levels of the protein secretion as determined by enzyme-linked immunosorbent assay (ELISA). See FIG. 2, Panel A; levels of IL-6 were measured by ELISA with each point representing the average of four data points.

[9] = system: NCI-H1650 cells; assay: Mouse xenograft model, tumor burden; assay type: in vivo, Nu/Nu mice; settings: topical TPA 5 days, then erlotinib by oral gavage versus DMSO
Description: The in vivo mouse experiments were performed by inoculating subcutaneously 3×10^6 NCI-H1650 cells subcutaneously into each flank of immunodeficient Nu/Nu mice in Swiss CD 1 background (Charles River Breeding Laboratories, Wilmington, Mass.). After the tumors reached a volume of approximately 100 mm^3, mice were treated topically every 2 days with TPA (10 μL of 0.25 mg/mL solution in acetone) or with acetone for 5 days. […] Tumor volume was monitored with a digital caliper and calculated using the following formula: (length)×(width)^2/2.
IL-6 is a pleiotropic cytokine that exerts important biological functions in a wide variety of systems and processes (e.g., inflammation, acute-phase reaction, nervous and endocrine systems, bone metabolism, hematopoiesis). […] Cutaneous inflammation and secretion of IL-6 by topic treatment of the mouse epidermis with low dose of 12-O-tetradecanoyl-phorbol-13-acetate (TPA) every other day was induced in a Nu/nu mouse model (Vasunia et al. Carcinogenesis 1994, 15: 653). Acetone was used as a vehicle control. The Nu/nu mice were subsequently injected in the flank with NSCLC expressing mutant EGFR.
After 8 days, tumor burden was evaluated and the averages of four separate tumors were charted.

[10] = system: IL-6; assay: IL-6 immunostaining of tumor sections; assay type: in vivo, Nu/Nu mice; settings: TPA-treated versus acetone-treated mice, topical
Description: Formalin-fixed, paraffin-embedded sections (4 μm) were stained for IL-6. Sections were de-embedded and rehydrated and epitope retrieval was performed by heating the sections in 0.01M citrate buffer at pH 6.0 in a microwave oven for 10 minutes. Endogenous peroxidase activity was blocked by treatment with 3% hydrogen peroxide in PBS for 10 minutes. After washing with PBS the blocking was performed using the Avidin/Biotin blocking kit (Vector laboratories, Cambridge, UK), Super Block (ID laboratories, London, CDN) and Mouse Block (ID laboratories, London, CDN). The sections were incubated with the primary antibody IL-6 (ab6672; Abcam, Cambridge, UK) in 1:300 dilution at 4° C. overnight. The IHC detection was done with the IDetect Super Stain System HRP (ID laboratories, London, CDN). […]
Protein expression was measured by defining regions of interest (ROI) using automated cell acquisition and quantification software for Immunohistochemistry (Histoquest™) and immunofluorescence (Tissuequest™).
Immunostaining of tumor sections using an anti-IL-6 antibody confirmed that TPA was able to augment IL-6 expression in the tumors. […] The levels of IL-6 in tumor matters were further measured by defining regions of interest (ROI) using automated cell acquisition and quantification software for immunohistochemistry (Histoquest™) or quantification software for immunofluorescence (Tissuequest™). […]

[11] = system: PC9 cells; assay: Sensitivity to erlotinib with IL-6, MTT assay; assay type: cell-based, human; settings: PC9, 10 ng/ml IL-6 24 hours, then erlotinib at various concentrations 72 hours
[12] = system: NCI-H1650 cells; assay: Soft agar assay; assay type: cell-based, human; settings: NCI-H1650, erlotinib with or without IL-6 (10 ng/ML)
Description: Cells were plated in triplicate in 12-well plates at 5000 cells/well, mixed in RPMI-1640, 5% FBS and 0.35% agarose. Cells were cultured for 20 days in presence of the indicated treatment. Colonies were visualized by staining with tetrazolium salt (Schaeffer W. I., Friend K. (1976) Cancer Lett 1:259-262). The number of colonies were determined using the J-Image software (htpp://rsbweb.hih.gov/ij/) on Z-stack images (Z=1.5 mm) at 5× magnification. Each data point represents the average of 3 fields from 3 individual wells.
The numbers of cell colonies were countered after a suitable period of time. The number of colonies were determined using the J-image software on Z-stack images (Z=1.5.mm) at 5× magnification. […] See FIG. 3, Panel C (each point represents the average of 3 fields from individual wells). […] See FIG. 3, Panel D (each bar representing the average of 4 replicates).

[13] = system: NSCLC cell lines expressing mutant EGFR; assay: Cell proliferation upon stimulation with IL-6; assay type: cell-based, human; settings: stimulation with IL-6 (10 ng/ml)
[14] = cells grown with or without IL-6, then erlotinib 4 hours, cell line not stated

C#Cc1cccc(Nc2ncnc3cc(OCCOC)c(OCCOC)cc23)c1 [erlotinib, N-(3-ethynylphenyl)-6,7-bis(2-methoxyethoxy)quinazolin-4-amine]
IC50 [1]: ~5 µM
erlotinib concentration in the presence of which the isolated cell line is capable of growing ([2]; NCI-H1650 M3, selected in constant high erlotinib): up to 30 μM
cell viability of NCI-H1650 M3 cells versus parental cells ([2]; erlotinib 0.3125-10 μM, 72 hours, particularly at high concentrations): much higher than that of the parental cells
phosphorylated STAT3 ([3]; parental NCI-H1650 cells, high erlotinib concentrations, 3 hours): undetectable
STAT3 phosphorylation levels ([4]; NCI-H1650 M3, erlotinib up to 10 μM, 3 hours): maintained high STAT3 phosphorylation levels
EGFR phosphorylation levels upon erlotinib treatment [5]: comparable inhibition
levels of phosphorylation of AKT ([6]; parental versus NCI-H1650 M3, erlotinib treatment): similarly inhibited
cleavage of PARP upon erlotinib treatment ([7]; NCI-H1650 M3 compared to parental cells, erlotinib 10 μM, 24 hours): substantial decrease
level of CL-PARP in erlotinib-treated cells compared to control cells ([7]; resistant cells, extracts after 72 hours): significantly increased
IL-6 levels in the media (ELISA) [8]: did not change

CCCCCCCCCCCCCC(=O)O[C@@H]1[C@@H](C)[C@@]2(O)[C@@H](C=C(CO)C[C@]3(O)C(=O)C(C)=C[C@@H]23)[C@@H]2C(C)(C)[C@]12OC(C)=O [TPA, 12-O-tetradecanoyl-phorbol-13-acetate]
tumor response to erlotinib treatment (tumor burden) [9]: dramatically reduced
IL-6 mean intensity in tumors [10]: much higher

CC(C)(C)c1nc2c3ccc(F)cc3c3c(=O)[nH]ccc3c2[nH]1 [P6, 2-tert-butyl-9-fluoro-3,6-dihydro-7H-benz[h]-imidaz[4,5-f] isoquinoline-7-one]
cell viability upon erlotinib treatment ([2]; NCI-H1650 M3, P6 2 μM): significantly decreased
STAT3 phosphorylation levels ([4]; NCI-H1650 M3, 2 μM, 2 days): decreased

IL-6: Recombinant Interleukin-6 (rhIL6) from R&D systems
effect on erlotinib-mediated inhibition of STAT3 phosphorylation [3, 14]: impaired inhibition of STAT3 phosphorylation
effect on erlotinib-mediated inhibition of AKT activation [6, 14]: did not have any effect
CL-PARP levels in the drug treated cells ([7]; resistant cells grown with IL-6 24 hours, then erlotinib, 72 hours): decreased CL-PARP levels
cell resistance to erlotinib (viability by MTT) [11]: increased PC9 cell resistance to erlotinib
cell resistance to erlotinib (number of colonies in soft agar) [12]: significantly increased cell resistance to erlotinib
cell proliferation [13]: No substantial changes
